Measurements as given in patent US12590093B2, “Indolo[2′,3′:3,4]pyrido[2,1-b]quinazoline compound and use thereof” (INSTITUTE OF MEDICINAL BIOTECHNOLOGY CHINESE ACADEMY OF …, priority 2019, dated 2026).
“Also recorded” adds a separate entry of the source.

Experiments:
[1] = target: T1, PPARγ (Homo sapiens, UniProt P37231); assay: Nuclear receptor reporter gene transient transfection (pBIND-hPPARs-LBD) in HepG2 cells, PPARγ; format: cell-based; conditions: FIG. 2, result in words
T1 construct: expressed in transfected cells; host or cells: HepG2
T1 sequence (P37231 238-503 limits assumed): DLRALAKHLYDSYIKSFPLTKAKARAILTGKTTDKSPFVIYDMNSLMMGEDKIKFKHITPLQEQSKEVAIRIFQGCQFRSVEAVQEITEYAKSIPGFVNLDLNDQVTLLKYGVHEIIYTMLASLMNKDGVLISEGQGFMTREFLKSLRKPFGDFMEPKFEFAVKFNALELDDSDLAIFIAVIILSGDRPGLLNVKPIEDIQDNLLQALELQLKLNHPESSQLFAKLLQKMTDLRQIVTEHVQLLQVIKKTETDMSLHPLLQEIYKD
Experimental: (§1) HepG2 cells in logarithmic growth phase were digested, seeded into the white/clear 96-well plate at a density of 5×10^4 cells/well/100 μL until the cells grew to about 90% confluence and in good condition. 0.5 μL liposome (Lipofectamine® 2000) diluted with blank medium to 25 μL per well and incubated at room temperature for 5 min. The corresponding plasmids DNA (nuclear receptor plasmid:Gal4=1:10) were diluted in blank DMEM medium to 25 μL/well (mixing of two plasmids), then mixed evenly with the diluted liposome, and incubated for 20 min at 37° C. The DNA-liposome complex (50 μL per well) was added with the DMEM complete medium (100 μL per well) and mixed thoroughly to obtain a DNA-liposome complex cell culture. The cell medium was discarded, and replaced with the DNA-liposome complex cell culture (150 μL/well) (37° C., 5% CO2). After 6 h, the DNA-liposome complex cell culture medium was discarded, and 200 μL serum-free DMEM medium containing the compound at an appropriate concentration was added to each test well, and cultured for 18-24 h. The cell Luciferase activity was measured by the method as described in the Luciferase Assay System.

[2] = tested on: ApoE^−/− mice; assay: Atherosclerosis model in ApoE−/− mice on high-fat diet, Oil Red O staining of aorta; format: in vivo; conditions: 5 mg/kg intragastrically, 12 weeks, HFD, versus model group
Experimental: 6-week-old male C57/BL6 ApoE^−/− mice were fed on normal chaw diet for one week. The mice were randomly divided into three groups (control group, high-fat diet model group, and treatment group, 12 mice per group) according to the body weight. From 7-week-old, the high-fat diet model group and the treatment group were fed on a high fat diet (HFD) (0.15% cholesterol and 20% fat), and the control group was fed on normal chow diet. The treatment group (R3) mice were administered intragastrically with TR3 (5 mg/kg). The control group and the high-fat diet model group mice were intragastrically administered with sodium carboxymethylcellulose (CMC-Na) solution. After 12 weeks of administration, all mice were fasted overnight. The blood sample was taken from the retro-orbital plexus, collected in a EP tube, and then centrifuged for 15 min (2500 rpm). The centrifuged serum (upper layer) was transferred to new EP tubes (divided into two aliquots) and stored at −20° C. for further use. The mice were fixed, and the skin was cut open along the midline of the abdomen to the neck. The abdominal cavity was cut open to collect the fresh liver tissue. The Liver tissue was put into 3 freezing tubes, and then immediately put into liquid nitrogen for subsequent detection of liver lipid detection and extraction of RNA and protein. The thorax was cut open to expose the heart. […]

[3] = target: T2, LXRα (Homo sapiens, UniProt Q13133); assay: Nuclear receptor reporter gene transient transfection (pBIND-hLXRs-LBD) in HepG2 cells, LXRα; format: cell-based
T2 construct: expressed in transfected cells; host or cells: HepG2
T2 sequence (Q13133 209-447 limits assumed): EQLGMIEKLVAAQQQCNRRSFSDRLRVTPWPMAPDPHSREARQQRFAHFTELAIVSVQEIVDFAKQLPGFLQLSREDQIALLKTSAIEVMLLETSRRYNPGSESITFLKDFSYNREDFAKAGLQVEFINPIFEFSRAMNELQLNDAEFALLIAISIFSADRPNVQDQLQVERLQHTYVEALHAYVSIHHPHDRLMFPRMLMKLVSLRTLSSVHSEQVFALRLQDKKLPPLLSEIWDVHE
Experimental: as §1

[4] = tested on: AMPK; assay: AMPK level in RAW 264.7 cells by western-blot; format: cell-based, Murine; conditions: 1 μM, 18-24 h treatment, FIG. 11
Experimental: (§2) Murine macrophages RAW 264.7 cells were subcultured about every 48 h. When the cells were approximately 100% confluent, the old culture medium was removed, and the cells were washed with PBS and digested with trypsin at an appropriate amount for about 2 min at RT. After the digestion solution was removed, the RPMI-1640 complete medium containing 10% FBS was added immediately to inhibit the activity of trypsin. The cells in the culture flask were repeatedly and gently blown with a curved straw, so that they were completely detached from the bottom of the flask and dispersed into the single-cell suspension. The cells were seeded into a new cell flask at a density of 1:4-1:6, and added with an appropriate amount of the complete medium. The flask was placed in an incubator and cultured at 37° C., 5% CO2. RAW264.7 cells were pretreated with si-AMPK (AMPK siRNA) for 24 h, and then treated with compound TR3 (1 μM) for 24 h. The expression of ABCA1 and AMPK was detected by western-blot.
(§3) The effect of TR3 on AMPK was detected by western-blot.

[5] = tested on: ApoE^−/− mice; assay: Serum lipid levels in ApoE−/− mice; format: in vivo; conditions: 5 mg/kg intragastrically, 12 weeks, HFD, versus model group
Experimental: 6-week-old male C57/BL6 ApoE^−/− mice were fed on normal chaw diet for one week. The mice were randomly divided into three groups (control group, high-fat diet model group, and treatment group, 12 mice per group) according to the body weight. From 7-week-old, the high-fat diet model group and the treatment group were fed on a high fat diet (HFD) (0.15% cholesterol and 20% fat), and the control group was fed on normal chow diet. The treatment group (R3) mice were administered intragastrically with TR3 (5 mg/kg). The control group and the high-fat diet model group mice were intragastrically administered with sodium carboxymethylcellulose (CMC-Na) solution. After 12 weeks of administration, all mice were fasted overnight. The blood sample was taken from the retro-orbital plexus, collected in a EP tube, and then centrifuged for 15 min (2500 rpm). The centrifuged serum (upper layer) was transferred to new EP tubes (divided into two aliquots) and stored at −20° C. for further use. The mice were fixed, and the skin was cut open along the midline of the abdomen to the neck. The abdominal cavity was cut open to collect the fresh liver tissue. The Liver tissue was put into 3 freezing tubes, and then immediately put into liquid nitrogen for subsequent detection of liver lipid detection and extraction of RNA and protein. The thorax was cut open to expose the heart. The heart was perfused with 10 ml PBS, and then fixed by perfusion with 4% paraformaldehyde solution until the liver turned white. The fixed liver was taken out and placed in a six-well plate containing 4% paraformaldehyde solution for further fixation. The full-length aorta (from the ascending aorta to the common iliac arteries) was isolated and placed in a six-well plate containing 4% paraformaldehyde solution. The aorta was fixed in 4% paraformaldehyde solution overnight and then stored in 20% sucrose solution at 4° C.
The plasma biochemical indices were measured by using commercially available kits (Biosino Bio-technology and Science Inc., China) and the automatic biochemical analyzer.

[6] = target: T3, PPARδ (Homo sapiens, UniProt Q03181); assay: Nuclear receptor reporter gene transient transfection (pBIND-hPPARs-LBD) in HepG2 cells, PPARδ; format: cell-based; conditions: FIG. 2, result in words
T3 construct: expressed in transfected cells; host or cells: HepG2
T3 sequence (Q03181 211-439 limits assumed): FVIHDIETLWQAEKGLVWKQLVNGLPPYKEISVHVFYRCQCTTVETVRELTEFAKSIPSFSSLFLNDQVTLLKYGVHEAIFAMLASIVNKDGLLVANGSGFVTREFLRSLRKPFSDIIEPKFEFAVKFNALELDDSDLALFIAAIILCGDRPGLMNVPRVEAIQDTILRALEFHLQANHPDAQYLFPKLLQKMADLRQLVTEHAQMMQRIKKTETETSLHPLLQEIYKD
Experimental: as §1

[7] = tested on: ABCA1; assay: ABCA1 expression in RAW 264.7 cells by western-blot, with or without si-AMPK; format: cell-based, Murine
Experimental: as §2, §3

Structure (SMILES): c1ccc2c(c1)CN1CCc3c([nH]c4ccccc34)C1=N2 [TR3, 5,7,8,13-tetrahydroindolo[2′,3′:3,4]pyrido[2,1-b]quinazoline]
- activation of PPARγ [1]: simultaneously activated PPARα/γ/δ and LXRα/β to a certain extent
- atherosclerotic plaque area in the aorta [2]: significantly reduced
- LXRα max ([3]; HepG2 cells, reporter gene, 18-24 h): 1.36
- LXRα agonist activity ([3]; result in words): showed agonist activity; also recorded: simultaneously activated PPARα/γ/δ and LXRα/β to a certain extent
- AMPK level [4]: significantly up-regulated
- level of LDL-C in serum [5]: greatly decreased
- level of TC in serum [5]: greatly decreased
- level of TG in serum [5]: greatly decreased
- activation of PPARδ [6]: simultaneously activated PPARα/γ/δ and LXRα/β to a certain extent
- up-regulation of ABCA1 expression after addition of si-AMPK ([7]; RAW 264.7 cells pretreated with si-AMPK 24 h, then 1 μM for 24 h): inhibited by the addition of interfering RNA (si-AMPK)
- expression of ABCA1 ([7]; RAW 264.7 cells, 1 μM, western-blot, FIG. 11): significantly up-regulated
